US7989640B2, “Sulfonylpyrrolidine modulators of androgen receptor function and method” (Bristol-Myers Squibb Company, priority 2004, dated 2011)

How the values were obtained:
AR = biological target: T1, AR (Rattus norvegicus, UniProt P15207)
T1 sequence (P15207 1-902): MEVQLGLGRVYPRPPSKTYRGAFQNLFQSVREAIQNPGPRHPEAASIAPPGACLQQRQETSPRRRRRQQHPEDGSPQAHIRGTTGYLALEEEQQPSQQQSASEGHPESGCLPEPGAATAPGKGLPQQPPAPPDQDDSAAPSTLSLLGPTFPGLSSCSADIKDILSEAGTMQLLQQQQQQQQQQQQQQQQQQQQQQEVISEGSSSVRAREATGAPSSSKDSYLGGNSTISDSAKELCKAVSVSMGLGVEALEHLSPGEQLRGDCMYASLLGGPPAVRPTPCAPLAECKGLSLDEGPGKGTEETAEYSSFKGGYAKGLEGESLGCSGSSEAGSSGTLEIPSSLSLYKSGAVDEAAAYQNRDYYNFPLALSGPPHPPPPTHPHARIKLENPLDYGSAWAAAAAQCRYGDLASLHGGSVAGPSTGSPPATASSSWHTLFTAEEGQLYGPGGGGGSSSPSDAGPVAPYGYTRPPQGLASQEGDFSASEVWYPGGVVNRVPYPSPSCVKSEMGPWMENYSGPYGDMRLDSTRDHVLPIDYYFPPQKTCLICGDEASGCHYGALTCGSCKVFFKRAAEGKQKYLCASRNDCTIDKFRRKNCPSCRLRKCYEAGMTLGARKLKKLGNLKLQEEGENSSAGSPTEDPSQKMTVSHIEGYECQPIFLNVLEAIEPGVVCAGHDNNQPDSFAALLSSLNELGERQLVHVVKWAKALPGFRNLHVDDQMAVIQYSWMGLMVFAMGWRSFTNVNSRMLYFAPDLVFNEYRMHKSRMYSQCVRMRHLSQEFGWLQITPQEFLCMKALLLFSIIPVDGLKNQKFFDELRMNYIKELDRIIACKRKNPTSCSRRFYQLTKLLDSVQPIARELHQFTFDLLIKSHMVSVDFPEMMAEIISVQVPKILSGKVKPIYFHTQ
Description: The activity of compounds of the present invention as AR agonists was investigated in an immature male rat model, a recognized test of anabolic effects in muscle and sustaining effects in sex organs for a given compound, as described in L. G. Hershberger et al., Proc. Soc. […] Biol. Med., 83, 175 (1953); B. L. Beyler et al, “Methods for evaluating anabolic and catabolic agents in laboratory animals”, J. Amer. Med. Women's Ass., 23, 708 (1968); H. Fukuda et al., “Investigations of the levator ani muscle as an anabolic steroid assay”, Nago Dai. Yak. Ken. Nem. 14, 84 (1966) the disclosures of which are herein incorporated by reference.
The basis of this assay lies in the well-defined action of androgenic agents on the maintenance and growth of muscle tissues and sexual accessory organs in animals and man. […] J. Anat. […] Ital. Biol. Sper. […] II. […] Ital. Biol. Sper. 42, 1600 (1966); A. Boris et al., Steroids 15, 61 (1970). As described above, the effects of androgens on maintenance of male sexual accessory organs, such as the prostate and seminal vesicles, is well described. Castration results in rapid involution and atrophy of the prostate and seminal vesicles. This effect can be reversed by exogenous addition of androgens. […]

[1] = biological target: endogenous glucocorticoid receptor (A549 cells) (Homo sapiens, UniProt P04150); details: concentration ≦10 μM; 10 ng/mL PMA stimulation; typical value of positive control
Chain of endogenous glucocorticoid receptor (A549 cells) (P04150 whole entry): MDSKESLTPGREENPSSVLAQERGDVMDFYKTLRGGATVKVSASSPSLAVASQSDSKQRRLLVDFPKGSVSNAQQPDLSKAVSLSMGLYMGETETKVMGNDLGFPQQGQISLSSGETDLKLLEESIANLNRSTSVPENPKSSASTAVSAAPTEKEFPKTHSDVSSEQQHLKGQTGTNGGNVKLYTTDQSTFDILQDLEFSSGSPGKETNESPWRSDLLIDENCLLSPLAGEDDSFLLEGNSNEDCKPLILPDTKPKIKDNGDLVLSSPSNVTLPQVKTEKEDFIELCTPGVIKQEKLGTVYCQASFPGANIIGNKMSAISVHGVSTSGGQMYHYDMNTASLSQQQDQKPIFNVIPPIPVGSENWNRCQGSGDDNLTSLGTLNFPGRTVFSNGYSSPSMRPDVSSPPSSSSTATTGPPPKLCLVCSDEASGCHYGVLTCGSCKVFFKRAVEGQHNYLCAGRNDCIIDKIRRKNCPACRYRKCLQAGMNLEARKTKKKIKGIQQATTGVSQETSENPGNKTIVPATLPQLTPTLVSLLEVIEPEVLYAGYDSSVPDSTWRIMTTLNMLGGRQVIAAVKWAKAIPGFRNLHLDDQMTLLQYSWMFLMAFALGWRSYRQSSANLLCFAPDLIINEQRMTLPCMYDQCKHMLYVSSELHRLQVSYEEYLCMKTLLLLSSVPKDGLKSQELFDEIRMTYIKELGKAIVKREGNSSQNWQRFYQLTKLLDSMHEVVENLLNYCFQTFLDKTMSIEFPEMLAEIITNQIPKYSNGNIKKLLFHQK
Experimental: The AP-1 assay is a cell-based luciferase reporter assay. A549 cells, which contain endogenous glucocorticoid receptor, were stably transfected with an AP-1 DNA binding site attached to the luciferase gene. Cells are then grown in RPMI+10% fetal calf serum (charcoal-treated)+Penicillin/Streptomycin with 0.5 mg/mL geneticin. Cells are plated the day before the assay at approximately 40000 cells/well. On assay day, the media is removed by aspiration and 20 μL assay buffer (RPMI without phenol red+10% FCS (charcoal-treated)+Pen/Strep) is added to each well. At this point either 20 μL assay buffer (control experiments), the compounds of the present invention (“test compounds”) (dissolved in DMSO and added at varying concentrations) or dexamethasome (100 nM in DMSO, positive control) are added to each well. The plates are then pre-incubated for 15 min at 37° C., followed by stimulation of the cells with 10 ng/mL PMA. The plates are then incubated for 7 h at 37° C. after which 40 μL luciferase substrate reagent is added to each well.

wild type AR (MDA 453) = details: read-out: Kd for [3H]-DHT; MDA 453 cells, Scatchard analysis
Experimental: For the whole-cell binding assay, human LNCaP cells (T877A mutant AR) or MDA 453 (wild type AR) in 96-well microtiter plates containing RPMI 1640 or DMEM supplemented with 10% charcoal stripped CA-FBS (Cocaleco Biologicals) respectively, were incubated at 37° C. to remove any endogenous ligand that might be complexed with the receptor in the cells.
For the saturation analysis, the difference between the total binding and the non-specific binding, was defined as specific binding. […] See e.g. D. Rodbard, Mathematics and statistics of ligand assays: an illustrated guide: In: J. Langon and J. J. Clapp, eds., Ligand Assay, Masson Publishing U.S.A., Inc., New York, pp. 45-99, (1981), the disclosure of which is herein incorporated by reference.
[formula] After correcting for non-specific binding, IC50 values were determined. […] C2C12 Mouse Myoblast Transactivation Assay

`CCC(=O)O[C@H]1CC[C@H]2[C@@H]3CCC4=CC(=O)CC[C@]4(C)[C@H]3CC[C@]12C` [TP, testosterone propionate] was tested, and the “potency relative to free T” value (AR; TP versus free T) was 10-30 fold and the “EC50 (increase in organ weight)” value (AR; immature castrated rats, dosing for 3 days) was about 0.03 mg.
With `C[C@@H]1C[C@H]2[C@@H]3CCC4=CC(=O)C=C[C@]4(C)[C@@]3(F)[C@@H](O)C[C@]2(C)[C@@]1(O)C(=O)CO` [dexamethasone] the “suppression of activity (% inhibition of the reporter system vs buffer control)” value [1] was 65%.
Work on “tritiated dihydrotestosterone [[^3H]-DHT]” yielded a Kd (wild type AR (MDA 453)) of 0.7 nM.
